Data: US5449752A, “Polypeptides with affinity to lipopolysaccharides and their uses” (Seikagaku Kogyo K.K., priority 1991, dated 1995)
Converted amounts (≈) assume the structure as drawn. Positions of bridges follow the written chain, without caps; N, C: chain ends. Residues, ends and D or L forms follow the SMILES beside them.

Assays:
HIV = assay: Antiviral activity against HIV in HIV-infected MT-4 cells (MTT method); format: cell-based, human immunodeficiency virus; settings: for EC50 (concentration at which cell death due to HIV infection is 50% inhibited): HIV-infected MT-4 cells, MOI 0.001, 37° C., 5 days, MTT method; for SI (CC50 /EC50): rough ratio of CC50 to EC50, MT-4 cells; for selectivity in killing HIV infected cells (in words): MT-4 cells, Table III; for selectivity index higher than for any of the known high endotoxin affinity compounds: compared with Tachyplesins and Polyphemusins of Table III
Description: The antiviral activity-against HIV of the polypeptide (1) synthesized in Example 1 as well as polypeptides (2), (3), (4), (7), (12), (13), (14), (20), (21) and (26) was tested and evaluated according to the following method.
(§1) HIV-infected MT-4 cells (2.5×10^4 cells/well, multiplicity of infection (MOI): 0.001) immediately after infection were added together with the test substance with various changes of the concentration to a 96-well microtitre plate. After incubation at 37° C. for 5 days in a CO2 incubator, the number of survivor cells was measured by the MTT method [Pauwels et al.; J. Virol. Methods, 20, 309-321 (1988)]. The antiviral activity is expressed as a concentration at which cell death due to HIV infection is 50% inhibited (EC50 : 50% effective concentration). On the other hand, in order to know the cytotoxicity of the test substance on the MT-4 cells, virus-noninfected cells are incubated, likewise as above, together with the test compound with various changes of the concentration. The cytotoxicity is expressed as 50% cytotoxic concentration […] due to the test substance. Further, the rough ratio of CC50 to EC50 (CC50 /EC50) is expressed as an effective ratio (SI=selectivity index).

MT-4 cells = assay: Cytotoxicity on virus-noninfected MT-4 cells (MTT method); format: cell-based; settings: 37° C., 5 days
Description: as §1

Row | SMILES | EC50 (concentration at which cell death due to HIV infection is 50% inhibited) (HIV) [µg/mL] | CC50 (50% cytotoxic concentration) (MT-4 cells) [µg/mL] | SI (CC50 /EC50) (HIV) | selectivity in killing HIV infected cells (in words) (HIV) | selectivity index higher than for any of the known high endotoxin affinity compounds (HIV)
1 | Cc1cn([C@H]2C[C@H](N=[N+]=[N-])[C@@H](CO)O2)c(=O)[nH]c1=O [AZT, reference compound] | 4.8 (≈ 18 µM) | 6.8 (≈ 25.4 µM) | – | – | –
2 | CC(C)[C@@H]1NC(=O)[C@H](CCCNC(=N)N)NC(=O)[C@H](Cc2ccccc2)NC(=O)[C@@H](NC(=O)[C@H](Cc2c[nH]c3ccccc23)NC(=O)[C@H](CCCNC(=N)N)NC(=O)[C@@H](N)CCCNC(=N)N)CSSC[C@@H](C(=O)N[C@@H](CCCNC(=N)N)C(N)=O)NC(=O)[C@H](CCCCN)NC(=O)[C@H](CCCNC(=N)N)NC(=O)[C@H](Cc2ccc(O)cc2)NC(=O)[C@@H]2CSSC[C@H](NC1=O)C(=O)N[C@@H](Cc1ccc(O)cc1)C(=O)N[C@@H](CCCCN)C(=O)NCC(=O)N[C@@H](Cc1ccccc1)C(=O)N2 [Polyphemusin II, ArgArgTrpCysPheArgValCysTyrLysGlyPheCysTyrArgLysCysArg NH2, reference compound] (H-RRWCFRVCYKGFCYRKCR-NH2; disulfide 4-17, 8-13) | 1.9 (≈ 0.783 µM) | 33 (≈ 13.6 µM) | 17 | – | –
3 | CC[C@H](C)[C@@H]1NC(=O)CNC(=O)[C@H](CCCNC(=N)N)NC(=O)[C@H](Cc2ccc(O)cc2)NC(=O)[C@@H]2CSSC[C@H](NC1=O)C(=O)N[C@@H](Cc1ccc(O)cc1)C(=O)N[C@@H](CCCNC(=N)N)C(=O)N[C@@H](CCCCN)C(=O)N[C@H](C(=O)N[C@@H](CCCNC(=N)N)C(N)=O)CSSC[C@H](NC(=O)[C@H](Cc1c[nH]c3ccccc13)NC(=O)[C@@H](N)CCCNC(=N)N)C(=O)N[C@@H](Cc1ccccc1)C(=O)N[C@@H](CCCNC(=N)N)C(=O)N[C@@H](C(C)C)C(=O)N2 [Tachyplesin II, ArgTrpCysPheArgValCysTyrArgGlyIleCysTyrArgLysCysArg NH2, reference compound] (H-RWCFRVCYRGICYRKCR-NH2; disulfide 3-16, 7-12) | – | 36 (≈ 15.9 µM) | 6 | – | –
4 | N=C(N)NCCC[C@H](NC(=O)[C@@H]1CSSC[C@H](NC(=O)[C@H](Cc2c[nH]c3ccccc23)NC(=O)[C@H](CCCNC(=N)N)NC(=O)[C@@H](N)CCCNC(=N)N)C(=O)N[C@@H](Cc2ccc(O)cc2)C(=O)N[C@@H](CCCNC(=N)N)C(=O)N[C@@H](CCCCN)C(=O)N[C@H]2CSSC[C@H](NC(=O)[C@H](Cc3ccc(O)cc3)NC(=O)CNC(=O)[C@H](CCCCN)NC(=O)[C@H](Cc3ccc(O)cc3)NC2=O)C(=O)N[C@@H](Cc2ccc(O)cc2)C(=O)N[C@@H](CCCNC(=N)N)C(=O)N[C@@H](CCCCN)C(=O)N1)C(N)=O [polypeptide (1)] (H-RRWCYRKCYKGYCYRKCR-NH2; disulfide 4-17, 8-13) | – | 54 (≈ 21.7 µM) | 10800 | – | –
5 | N=C(N)NCCC[C@H](NC(=O)[C@H](CCCNC(=N)N)NC(=O)[C@@H]1CSSC[C@H](NC(=O)[C@H](Cc2c[nH]c3ccccc23)NC(=O)[C@H](CCCNC(=N)N)NC(=O)[C@@H](N)CCCNC(=N)N)C(=O)N[C@@H](Cc2ccc(O)cc2)C(=O)N[C@@H](CCCNC(=N)N)C(=O)N[C@@H](CCCCN)C(=O)N[C@H]2CSSC[C@H](NC(=O)[C@H](Cc3ccc(O)cc3)NC(=O)CNC(=O)[C@H](CCCCN)NC(=O)[C@H](Cc3ccc(O)cc3)NC2=O)C(=O)N[C@@H](Cc2ccc(O)cc2)C(=O)N[C@@H](CCCNC(=N)N)C(=O)N[C@@H](CCCCN)C(=O)N1)C(N)=O [polypeptide (2), ArgArgTrpCysTyrArgLysCysTyrLysGlyTyrCysTyrArgLysCysArgArgNH2] (H-RRWCYRKCYKGYCYRKCRR-NH2; disulfide 4-17, 8-13; N-terminus assumed) | 1.26 (≈ 0.477 µM) | 200 (≈ 75.7 µM) | – | – | –
6 | N=C(N)NCCC[C@H](NC(=O)[C@@H]1CSSC[C@H](NC(=O)[C@H](Cc2c[nH]c3ccccc23)NC(=O)[C@@H](N)CCCNC(=N)N)C(=O)N[C@@H](Cc2ccc(O)cc2)C(=O)N[C@@H](CCCNC(=N)N)C(=O)N[C@@H](CCCCN)C(=O)N[C@H]2CSSC[C@H](NC(=O)[C@H](Cc3ccccc3)NC(=O)CNC(=O)[C@H](CCCCN)NC(=O)[C@H](Cc3ccc(O)cc3)NC2=O)C(=O)N[C@@H](Cc2ccc(O)cc2)C(=O)N[C@@H](CCCNC(=N)N)C(=O)N[C@@H](CCCCN)C(=O)N1)C(N)=O [polypeptide (3), ArgTrpCysTyrArgLysCysTyrLysGlyPheCysTyrArgLysCysArgNH2] (H-RWCYRKCYKGFCYRKCR-NH2; disulfide 3-16, 7-12; N-terminus assumed) | 0.07 (≈ 0.0302 µM) | 50 (≈ 21.6 µM) | – | particularly selective | at least 7 fold
7 | N=C(N)NCCC[C@H](NC(=O)[C@H](CCCNC(=N)N)NC(=O)[C@@H]1CSSC[C@H](NC(=O)[C@H](Cc2c[nH]c3ccccc23)NC(=O)[C@@H](N)CCCNC(=N)N)C(=O)N[C@@H](Cc2ccc(O)cc2)C(=O)N[C@@H](CCCNC(=N)N)C(=O)N[C@@H](CCCCN)C(=O)N[C@H]2CSSC[C@H](NC(=O)[C@H](Cc3ccccc3)NC(=O)CNC(=O)[C@H](CCCCN)NC(=O)[C@H](Cc3ccc(O)cc3)NC2=O)C(=O)N[C@@H](Cc2ccc(O)cc2)C(=O)N[C@@H](CCCNC(=N)N)C(=O)N[C@@H](CCCCN)C(=O)N1)C(N)=O [polypeptide (4), ArgTrpCysTyrArgLysCysTyrLysGlyPheCysTyrArgLysCysArgArgNH2] (H-RWCYRKCYKGFCYRKCRR-NH2; disulfide 3-16, 7-12; N-terminus assumed) | 2.75 (≈ 1.11 µM) | 338 (≈ 137 µM) | – | – | –
8 | N=C(N)NCCC[C@H](NC(=O)[C@@H]1CSSC[C@H](NC(=O)[C@H](Cc2c[nH]c3ccccc23)NC(=O)[C@H](CCCNC(=N)N)NC(=O)[C@@H](N)CCCNC(=N)N)C(=O)N[C@@H](Cc2ccc(O)cc2)C(=O)N[C@@H](CCCCN)C(=O)N[C@@H](CCCNC(=N)N)C(=O)N[C@H]2CSSC[C@H](NC(=O)[C@H](Cc3ccc(O)cc3)NC(=O)CNC(=O)[C@H](CCCCN)NC(=O)[C@H](Cc3ccc(O)cc3)NC2=O)C(=O)N[C@@H](Cc2ccc(O)cc2)C(=O)N[C@@H](CCCCN)C(=O)N[C@@H](CCCNC(=N)N)C(=O)N1)C(N)=O [polypeptide (12), ArgArgTrpCysTyrLysArgCysTyrLysGlyTyrCysTyrLysArgCysArgNH2] (H-RRWCYKRCYKGYCYKRCR-NH2; disulfide 4-17, 8-13; N-terminus assumed) | 0.49 (≈ 0.197 µM) | 245 (≈ 98.5 µM) | – | particularly selective | at least 7 fold
9 | N=C(N)NCCC[C@H](NC(=O)[C@@H]1CSSC[C@H](NC(=O)[C@H](Cc2c[nH]c3ccccc23)NC(=O)[C@H](CCCNC(=N)N)NC(=O)[C@@H](N)CCCNC(=N)N)C(=O)N[C@@H](Cc2ccc(O)cc2)C(=O)N[C@@H](CCCNC(=N)N)C(=O)N[C@@H](CCCCN)C(=O)N[C@H]2CSSC[C@H](NC(=O)[C@H](Cc3ccccc3)NC(=O)CNC(=O)[C@H](CCCCN)NC(=O)[C@H](Cc3ccc(O)cc3)NC2=O)C(=O)N[C@@H](Cc2ccc(O)cc2)C(=O)N[C@@H](CCCNC(=N)N)C(=O)N[C@@H](CCCCN)C(=O)N1)C(N)=O [polypeptide (13), ArgArgTrpCysTyrArgLysCysTyrLysGlyPheCysTyrArgLysCysArgNH2] (H-RRWCYRKCYKGFCYRKCR-NH2; disulfide 4-17, 8-13; N-terminus assumed) | 0.009 (≈ 0.00364 µM) | 52 (≈ 21 µM) | – | particularly selective | at least 7 fold
10 | N=C(N)NCCC[C@H](NC(=O)[C@@H]1CSSC[C@H](NC(=O)[C@H](Cc2c[nH]c3ccccc23)NC(=O)[C@H](CCCNC(=N)N)NC(=O)[C@@H](N)CCCNC(=N)N)C(=O)N[C@@H](Cc2ccc(O)cc2)C(=O)N[C@@H](CCCNC(=N)N)C(=O)N[C@@H](CCCCN)C(=O)N[C@H]2CSSC[C@H](NC(=O)[C@H](Cc3ccc(O)cc3)NC(=O)CNC(=O)[C@H](CCCNC(=N)N)NC(=O)[C@H](Cc3ccc(O)cc3)NC2=O)C(=O)N[C@@H](Cc2ccc(O)cc2)C(=O)N[C@@H](CCCNC(=N)N)C(=O)N[C@@H](CCCCN)C(=O)N1)C(N)=O [polypeptide (14), ArgArgTrpCysTyrArgLysCysTyrArgGlyTyrCysTyrArgLysCysArgNH2] (H-RRWCYRKCYRGYCYRKCR-NH2; disulfide 4-17, 8-13; N-terminus assumed) | 0.018 (≈ 0.00716 µM) | 52 (≈ 20.7 µM) | – | particularly selective | at least 7 fold
